This note sets out measurements from patent US9796777B2, “Methods of treating malignant tumors” (Canimguide Therapeutics AB, priority 2007, dated 2017).

One assay has as its system mAb A. Particulars: second trypsination of <30 kD fragments eluted from mAb A at pH 2.7. The procedure: MALDI epitope mapping of mAb A based on antibody protection of proteolysis was repeated. This time a slightly different approach was used. Denatured HSA was incubated with mAb A. Albumin not bound by the antibody, was removed from the sample by size exclusion on an ultra filter. The remaining free mabs and the complexes of mab-albumin was then digested with trypsin (sequences of the albumin molecule to which mab is bound should resist the trypsin digestion). Small cleaved fragments of mab and unprotected albumin was then removed from the sample by ultrafiltration (30 kD). The complexes of mAb and bound albumin fragments were dissociated by lowering the pH to 2.7. Again ultrafiltration at 30 kD was performed to separate whole mAb from albumin fragments smaller than 30 kD.
Denatured HSA (80 μg) was incubated with mAb A (10 μg) in PBS for 18 h at room temperature. […] The retentate was diluted in 25 mM NH4HCO3 and again centrifuged as described above. The retentate was transferred to a sterile eppendorf microcentrifuge tube in 0.4 ml 25 mM NH4HCO3 and 0.4 μg sequencing grade modified trypsin (Promega) was added. Digestion was carried out at 37° C. over night with gentle agitation. Trypsin and free (not antibody-bound) albumin fragments were removed by ultrafiltration on a Amicon Ultra-4 filter (mw cut-off 30 000 Da, Millipore Co.) for 5 min at 3000 rpm. This was repeated three times. The retentate was then transferred to a new ultra filter where the mAb A was disassociated from bound albumin by the addition of 600 μl 0.1 M glycine-HCl, pH 2.7, for 30 min at room temperature after which the ultra filter was centrifuged for 10 min at 3000 rpm. The filtrate was transferred to a sterile Eppendorf microcentrifuge tube and neutralized with Tris-HCl, pH 9. The sample was then immediately dried over night in a SpeedVac vacuum concentrator. The samples were then dissolved in 16 μl of sequencing grade modified trypsin (at 5 μg/ml) (Promega) and incubated at 37° C. for 18 hours. Zip Tip pipette tips (Millipore) containing C18 chromatorgraphy media were used for desalting before the sample was analysed by MALDI TOF ms (see below).
1 μl of each sample of the tryptic digestion was mixed with 1 μl of a saturated solution of α-cyano-4-hydroxycinamic acid ([…]) in 70% acetonitrile/0.3% trifluoro acetic acid. 1 μl of that mixture was spotted on a stainless steel target plate and analysed using MALDI-TOF ms (Voyager-DE PRO, Applied Biosystems, CA, US) equipped with a 337 nm N2 laser. Database searches for masses corresponding to human serum albumin in the resulting spectra were performed in NCBI or SwissProt with MS-Fit as search engine.

Assay [1] concerns cell surface receptors of immune cells (ACS). The assay is described as follows: Adsorption of enzyme fragmented dHSA on affinity column with biotinylated cell surface proteins (ACS), MALDI-TOF ms. The class given is binding, human. The protocol:
Based on the observation that immunoregulatory peptide sequences are present in serum albumin, there is the possibility that other sequences than the epitope of mAb A have immunoregulatory function. Therefore an artificial cell surface (ACS) was prepared as described in materials and methods. […]
To remove unfragmented albumin and enzyme, the sample was ultra filtered through an Amicon Ultra 4 (mw cut-off of 5000) or a Centriplus (mw cut-off 10000) centrifugal filter (Millipore AB, Solna, Sweden). The filtrate, containing fragmented dHSA without enzymes, was collected and diluted with PBS with Ca and Mg (GIBCO).
Buffy coats generated from 450 ml blood each was collected from 4 healthy donors. Erythrocytes were removed by sedimentation on 2% dextran T500 solution (Amersham Pharmacia Biotech AB, Uppsala Sweden) in 0.9% NaCl. Mononuclear cells (PBMC) were then isolated by Ficoll-Paque Plus (GE Healthcare Bioscience AB Sweden) density gradient centrifugation. The PBMC were then suspended in phosphate buffered saline (PBS) containing Ca and Mg (GIBCO) at a concentration of 10×10^6/ml. EZ Link Sulfo-NHS-biotin (Pierce USA) was added at a final concentration of 0.2 mg/ml and the mixture incubated on a shaker at room temperature for 10 min. Excess biotin was then removed by washing the PBMC in PBS. Biotinylated PBMC were then lysed by adding 1.0 ml ice-cold lysing buffer (50 mM Tris-HCL, pH 7.5, with 0.15 M NaCl, 5 mM MgCl2 containing 100 mM Octyl glucoside and 1 mM Phenylmethylsulfonyl fluoride) per 2×10^7 pelleted cells with gentle shaking, then incubated for 30 min. on ice. Debris was removed by centrifugation at 5000×g at 4° C. for 10 min and the supernatants was collected and pooled from all four donors. The lysate was then stored at −70° C. in polypropylene plastic tubes.
This amount of lysate corresponds to 36×10^7 mononuclear cells. It was added to a 1 ml Hitrap Streptavidin HP affinity column (Amersham Biosciences). To block possible remaining free biotin, 5 ml of 0.1 M glycine (Sigma) was added to the column. Unsaturated streptavidin on the column was then reacted with 150 ug biotin (Sigma) in binding buffer. The column was carefully washed with PBS and stored in PBS with 0.1% NaN3 at 4° C. until use.
27 ml biotinylated cell lysate in binding buffer (corresponding to 54×10^7 mononuclear cells) was added to 1.5 ml washed Streptavidin Sepharose HP (Amersham Biosciences). To block possible remaining free biotin, 25 ml of 0.1 M glycine (Sigma) was added to the Streptavidin Sepharose. Unsaturated streptavidin was then reacted with 225 μg biotin (Sigma) in binding buffer. The Streptavidin Sepharose was carefully washed in PBS. One ml of the biotinylated cell lysate coupled Streptavidin Sepharose was then packed in an empty column (Tricorn Empty High Performance Column, Amersham Bioscience) and washed with phosphate buffered saline (PBS) containing Ca and Mg (GIBCO).
The flow-through was collected with consideration taken to void volume and dilution of adsorbed sample by collecting in small portions of 0.2 ml. Thirty ul of each sample, including a control sample that has not been adsorbed, were dried in a Speed-Vac centrifuge.
Dried samples were reconstituted in 10 ul of 0.1% TFA. Zip Tip pipette tips (Millipore, USA) containing C18 reversed-phase media were used for desalting reconstituted samples. […] For the analysis of samples in the mass range 1500-9000 Da, one μl of each Zip Tip eluted sample was mixed with 1 μl of sinapinic acid ([…]). […] Mass identity search of resulting spectra was performed in the SwissProt or NCBI databases using MS-Fit.

The test system of the next assay is PBMCs. Description: PHA-induced proliferation of PBMC in the presence of albumin peptides and/or dHSA. It is filed as cell-based, human. The source says:
Venous blood was drawn from healthy volunteers or from cancer patients in glass vacuum tubes with acid dextrose citrate solution A as anti-coagulant (Vacutainer, Becton Dickinson, Franklin Lakes, N.J.). Erythrocytes were removed by sedimentation on 2% dextran T500 solution (Amersham Pharmacia Biotech AB, Uppsala, Sweden) in 0.9% NaCl (this step was omitted for cultures with PHA-stimulation-see below). […] For cell cultures with PHA-stimulation, PBMC were washed in Hank's Balanced Salt Solution (HBSS) with 10% autologous plasma instead of RPMI/2% HSA. […] The cell suspension was stained with Turk's solution and the number of lymphocytes and monocytes in the PBMC preparation were counted in a hemocytometer. PBMCs were suspended in RPMI/2% HSA and the cell concentration adjusted to 5×10^5 lymphocytes/ml.
100 μl of the cell suspension were seeded into round-bottomed microtiter plates (Corning, N.Y., USA) followed by 100 μl of culture medium consisting of RPMI 1640 (Flow Laboratories, Irvine, Scotland) supplemented with 200 IU/ml Penicillin, 200 μg/ml Streptomycin (Flow laboratories) and 20% heat inactivated autologous serum. Phytohemagglutinin (PHA-P, Sigma Chemical Co, St. Louis, Mo.) at a final concentration of 5 or 10 μg/ml was then added.
All culture conditions were set up in triplicate wells. […] Mean values of disintegrations per minute (dpm) of triplicates were used for the calculations.

In a further assay the test system is PBMC. Description: LPS-induced IL-6 production by PBMC, effect of peptides. Particulars: PBMCs from one healthy control; lowest peptide concentration. It is filed as cell-based, human. The procedure: 100 μl of culture medium consisting of RPMI1640 supplemented with 200 IU/ml penicillin, 200 μg/ml streptomycin, 4 mM L-glutamine (Sigma Chemical, Mo., US) and 20% fresh heat-inactivated autologous serum were added to un-coated or -pre-coated microtiter plates followed by 100 μl of PBMC suspension (5×10^4 lymphocytes) in RPMI/2% HSA with peptides at the indicated concentrations. Lipoplysaccharide (LPS, Sigma Chemical Co, MO, US) was added at a final concentration of 0.05 ng/ml. […] All assay conditions were set up in triplicate wells. Supernatants (SNs) were harvested after 24 hrs and residual cells were removed by centrifugation in a refrigerated centrifuge (Beckman) at 2600×g for 5 minutes. SNs were frozen and stored at −70° C. IL-6 in cell culture SNs was measured by ELISA using the DuoSet® ELISA development kit for human IL-6 (R&D Systems Europe, Ltd., Abingdon, UK) following the manufacturer's recommended procedures. The lower limit of detection was 3.1 pg/ml. Samples were analysed as mean of triplicate wells.

The mark [2] stands for this setting: Table 5 A, peptides generated by trypsin degradation of dHSA.
[3] abbreviates: PHA 5 μg/ml, peptides 10 μg/ml, 5 healthy controls and 4 patients.
[4] abbreviates: patient P46, lowest peptide concentration.
Setting [5] is: peptides 10 μg/ml, lower dHSA concentrations.
Setting [6] is: peptides 10 μg/ml, two highest dHSA concentrations.
[7] abbreviates: Table 5 B, trypsin peptides selected for synthesis.

“FQNALLVR [427-434, tryptic peptide of dHSA]” came in with a Peak area in the assay with mAb A of 1345. In assay [1] (setting [2]), this substance yielded a Per cent adsorbed of 0.41 Per cent.
In the case of ELFEQLGEYKF [peptide 2608], the “effect on PHA induced proliferation of PBMCs” value with PBMCs (setting [3]) is on record as “stimulatory effect in ¼ controls whereas ¾ patients were stimulated”; in the assay on PBMCs (setting [4]), “clear stimulatory activity”. Moreover, the “effect on dHSA enhanced PHA induced proliferation” value with PBMCs (setting [5]) is “stimulated the proliferative rate”; with PBMCs (setting [6]), “significantly inhibited the stimulatory activity”. For the same substance, in the assay on PBMC, the “effect on LPS induced IL-6 production” value is given as “inhibitory”.
For “CCTESLVNR [500-508, tryptic peptide of dHSA]”, in the assay on mAb A, the Peak area came to 119. Besides, in assay [1] (setting [2]), the Per cent adsorbed is reported as 0.26 Per cent.
Taken in the same sequence, the figures for “YLYEIAR [162-168, tryptic peptide of dHSA]” were 1035 and 0.34 Per cent.
In the assay on mAb A, “LCTVATLR [098-105, tryptic peptide of dHSA]” came in with a Peak area of 744. Also, in assay [1] (setting [2]), the Per cent adsorbed was found to be 0.35 Per cent.
With DDNPNLPR [tryptic peptide of dHSA], in the assay on mAb A, the Peak area is recorded as 534. The Per cent adsorbed in assay [1] (setting [2]) worked out at 0.01 Per cent.
NEETFLKKYLYE [peptide 2605]: the “effect on PHA induced proliferation of PBMCs” value with PBMCs (PBMCs from K92, three peptide concentrations) was “biphasic response pattern”; with PBMCs (setting [3]) it was “inhibitory or stimulatory effects in one control each and one patient each”; with PBMCs (setting [4]), “clear stimulatory activity”. The “effect on dHSA modulated PHA stimulated proliferation” value with PBMCs (PBMCs from two healthy controls, two PHA concentrations) is recorded as “inhibited the stimulatory activity of dHSA”. The “effect on dHSA enhanced PHA induced proliferation” value is listed as “stimulated the proliferative rate” with PBMCs (setting [5]) and “significantly inhibited the stimulatory activity” in the assay on PBMCs (setting [6]).
Regarding KLVNEVTEFAKT [peptide 2604], the “effect on LPS induced IL-6 production” value with PBMC is “stimulatory”.
Substance “LVNEVTEFAK [066-075, tryptic peptide of dHSA]” showed a Peak area in the assay with mAb A of 1918. In assay [1] (setting [2]), this substance displayed a Per cent adsorbed of -0.02 Per cent.
“KYLYEIAR [(K)KYLYEIAR (R), tryptic peptide of dHSA]”: the Per cent adsorbed in assay [1] (setting [2]) and in assay [1] (setting [7]) was 0.71 Per cent throughout.
For “RPCFSALEVDETYVPK [tryptic peptide of dHSA]”, the Per cent adsorbed in assay [1] (setting [2]) came out at 0.42 Per cent.
In the case of “KLCT VATLRETYGE MA DCCAKQEP ERNECFLQHK (KLCTVATLRETYGEMADCCAKQEPERNECFLEHK; HOMO SAPIENS) [ASP-N fragment of dHSA]”, the Per cent adsorbed in assay [1] (Table 6 B, ASP-DHSA, molecular weight 3200-9000 Da) stood at 1.00 Per cent.
For “QNCELFEQLGEYK [414-426, tryptic peptide of dHSA]”, the Per cent adsorbed in assay [1] (setting [2]) and in assay [1] (setting [7]) was 0.20 Per cent throughout.
Regarding “LDELRDEGK [206-214, tryptic peptide of dHSA]”, the Peak area with mAb A amounted to 644. For the same substance, the Per cent adsorbed in assay [1] (setting [2]) came out at 0.02 Per cent.
In the case of LSQRFPK, the Peak area with mAb A stood at 481.
